Converted amounts (≈) assume the structure as drawn.
Tests used:
[1] = Solubility of the compound; assay type: physicochemical
Rattus norvegicus [2] = test: Reversal of mechanically-induced allodynia in Wistar rat at 30 umol/kg, iv after 2 hrs by Brennan test; assay type: functional
Rattus norvegicus [3] = test: Effect on mechanically-induced allodynia in iv dosed Wistar rat after 2 hrs by Brennan test; assay type: functional

SMILES | solubility [1] | Activity (Rattus norvegicus [2]) | ED50 (Rattus norvegicus [3])
COc1ccc(C)c(OC(CCN2CCC(n3c(=O)n(Cc4ncn[nH]4)c4ccccc43)CC2)C(C)C)c1.Cl (single isomer, unassigned; (+)) | 4 µg/mL | – | –
COc1ccc(C)c(OC(CCN2CCC(n3c(=O)n(Cc4c[nH]cn4)c4ccccc43)CC2)C(C)C)c1 (centres undefined) | 200 µg/mL (≈ 386 µM) | – | –
COc1ccc(C)c(OC(CCN2CCC(n3c(=O)n(Cc4ncn[nH]4)c4ccccc43)CC2)C(C)C)c1 (centres undefined) | – | 100% | 12.1 µmol/kg

— ChEMBL document CHEMBL1143970, “Structure-activity relationships and CoMFA of N-3 substituted phenoxypropyl piperidine benzimidazol-2-one analogues as NOP receptor agonists with analgesic properties” (Bioorg Med Chem, 2008)
